# In patent US20090029958A1, “PHENETHANOLAMINE DERIVATIVES AS BETA2 ADRENORECEPTOR AGONISTS” (priority 2006, published 2009):
# Counter-ions that a name gives are not always drawn.
# Experiments:
# [1] = target: T1, Adrenergic β2 (Homo sapiens, UniProt P07550); assay: cAMP production in H292 cells, AlphaScreen cAMP detection (10 minutes incubation with test compound); assay type: cell-based; conditions: for Intrinsic Activity: fraction relative to the maximum activity determined for formoterol, 10 minutes incubation; for EC50: rolipram 300 μM, test compounds incubated 10 minutes at room temperature
# T1 construct: endogenous in cells; host or cells: H292 cells
# Protocol: H292 cells were grown in RPMI (Roswell Park Memorial Institute) medium containing, 10% (v/v) FBS (foetal bovine serum) and 2 mM L-glutamine. Cells were grown in 225 cm2 flasks containing 25 mL media in a humidified incubator at 37° C., 5% CO2. Cells were harvested from the flask and passaged at a 1 in 10 dilution once per week.
# The media from flasks containing H292 cells was removed, rinsed with 10 mL PBS (phosphate buffered saline) and replaced with 10 mL Accutase™ cell detachment solution. Flasks were incubated for 15 minutes in a humidified incubator at 37° C., 5% CO2. The cell suspension was counted and the cells re-suspended in RPMI media (containing 10% (v/v) FBS and 2 mM L-glutamine) at 0.05×10^6 cells per mL. 5000 cells in 100 μL were added to each well of a tissue-culture-treated 96-well plate and the cells incubated overnight in a humidified incubator at 37° C., 5% CO2. The culture media was removed, washed twice with 100 μL assay buffer and replaced with 50 μL assay buffer. Cells were rested at room temperature for 20 minutes after which time 25 μL of rolipram (1.2 mM made up in assay buffer containing 2.4% (v/v) dimethylsulphoxide) was added. Cells were incubated with rolipram for 10 minutes after which time test compounds (made up as ×4 concentrated stocks in assay buffer containing 4% (v/v) dimethylsulphoxide) were added and the cells were incubated for 10 minutes at room temperature. Final rolipram concentration in the assay was 300 μM and final vehicle concentration was 1.6% (v/v) dimethylsulphoxide. The reaction was stopped by removing supernatants, washing once with 100 μL assay buffer and replacing with 50 μL lysis buffer. The cell monolayer was frozen at −80° C. for 30 minutes (or overnight).
# (§1) The concentration of cAMP (cyclic adenosine monophosphate) in the cell lysate was determined using the AlphaScreen™ methodology. The frozen cell plate was thawed for 20 minutes on a plate shaker then 10 μL of the cell lysate was transferred to a 96-well white plate. 40 μL of mixed AlphaScreen™ detection beads (containing equal volumes of donor beads (pre-incubated with biotinylated cAMP in the dark for 30 minutes) and acceptor beads), was added to each well and the plate incubated at room temperature for 10 hours in the dark. The AlphaScreen™ signal was measured using an EnVision spectrophotometer (Perkin-Elmer Inc.) with the recommended manufacturer's settings. cAMP concentrations were determined by reference to a calibration curve determined in the same experiment using standard cAMP concentrations (made up in lysis buffer in a 96-well tissue-culture-treated plate and frozen/thawed alongside the test samples) and detected using the same protocol. Concentration response curves for agonists were constructed to determine both the pEC50 and Intrinsic Activity. Intrinsic Activity was expressed as a fraction relative to the maximum activity determined for formoterol in each experiment.
# [2] = target: T1, Adrenergic β2; assay: Alternative Adrenergic β2 Mediated cAMP Production in H292 cells (60 minutes incubation with test compound); assay type: cell-based; conditions: for Intrinsic Activity: fraction relative to the maximum activity determined for formoterol, 60 minutes incubation; for EC50: rolipram 300 μM, test compounds incubated 60 minutes at room temperature
# Protocol: H292 cells were grown in 225 cm2 flasks incubator at 37° C., 5% CO2 in RPMI medium containing, 10% (v/v) FBS (foetal bovine serum) and 2 mM L-glutamine.
# Adherent H292 cells were removed from tissue culture flasks by treatment with Accutase™ cell detachment solution for 15 minutes. Flasks were incubated for 15 minutes in a humidified incubator at 37° C., 5% CO2. Detached cells were re-suspended in RPMI media (containing 10% (v/v) FBS and 2 mM L-glutamine) at 0.05×10^6 cells per mL. 5000 cells in 100 μL were added to each well of a tissue-culture-treated 96-well plate and the cells incubated overnight in a humidified incubator at 37° C., 5% CO2. The culture media was removed and cells were washed twice with 100 μL assay buffer and replaced with 50 μL assay buffer (HBSS solution containing 10 mM HEPES pH7.4 and 5 mM glucose). Cells were rested at room temperature for 20 minutes after which time 25 μL of rolipram (1.2 mM made up in assay buffer containing 2.4% (v/v) dimethylsulphoxide) was added. Cells were incubated with rolipram for 10 minutes after which time test compounds were added and the cells were incubated for 60 minutes at room temperature. The final rolipram concentration in the assay was 300 μM and final vehicle concentration was 1.6% (v/v) dimethylsulphoxide. The reaction was stopped by removing supernatants, washing once with 100 μL assay buffer and replacing with 50 μL lysis buffer. The cell monolayer was frozen at −80° C. for 30 minutes (or overnight).
# as §1, with “using” for “using the”, “pre-incubated” for “(containing equal volumes of donor beads (pre-incubated”, “cAMP,” for “cAMP in the dark for 30 minutes) and acceptor beads),”, “concentrations.” for “concentrations (made up in lysis buffer in a 96-well tissue-culture-treated plate and frozen/thawed alongside the test samples) and detected using the same protocol.”, “constructed and data was fitted to a four parameter logistic equation” for “constructed”
# T1 sequence (P07550 whole entry): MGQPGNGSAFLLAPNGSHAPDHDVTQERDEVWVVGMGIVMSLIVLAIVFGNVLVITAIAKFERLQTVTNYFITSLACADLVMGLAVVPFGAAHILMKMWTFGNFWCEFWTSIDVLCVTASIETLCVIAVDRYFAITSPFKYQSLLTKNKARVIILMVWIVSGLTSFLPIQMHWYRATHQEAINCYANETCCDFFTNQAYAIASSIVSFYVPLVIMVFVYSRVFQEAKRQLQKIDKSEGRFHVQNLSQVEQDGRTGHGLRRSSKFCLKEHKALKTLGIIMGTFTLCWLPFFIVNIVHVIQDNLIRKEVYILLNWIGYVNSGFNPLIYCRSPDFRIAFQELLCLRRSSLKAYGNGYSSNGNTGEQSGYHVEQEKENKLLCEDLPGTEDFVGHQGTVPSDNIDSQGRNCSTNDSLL
Intrinsic Activity [1],EC50 [1] [nM],Intrinsic Activity [2],EC50 [2] [nM],Structure (SMILES)
0.8,31.6,,,"O=c1ccc2c([C@@H](O)CNC3CCN(CCCOCCc4ccccc4)CC3)ccc(O)c2[nH]1 [Example 3, 8-Hydroxy-5-[(1R)-1-hydroxy-2-({1-[3-(2-phenylethoxy)propyl]piperidin-4-yl}amino)ethyl]quinolin-2(1H)-one]"
0.8,2.51,,,"O=c1ccc2c([C@@H](O)CNCC3(O)CCN(CCOCCc4ccccc4)CC3)ccc(O)c2[nH]1 [Example 5, 8-Hydroxy-5-{(1R)-1-hydroxy-2-[({4-hydroxy-1-[2-(2-phenylethoxy)ethyl]piperidin-4-yl}methyl)amino]ethyl}quinolin-2(1H)-one]"
0.8,7.94,,,"O=C(CCN1CCC(NC[C@H](O)c2ccc(O)c3[nH]c(=O)ccc23)CC1)NCc1ccccc1 [Example 6, N-Benzyl-3-(4-{[(2R)-2-hydroxy-2-(8-hydroxy-2-oxo-1,2-dihydroquinolin-5-yl)ethyl]amino}piperidin-1-yl)propanamide]"
0.9,20,,,"O=c1ccc2c([C@@H](O)CN[C@H]3CC[C@H](NCCOCCc4ccccc4)CC3)ccc(O)c2[nH]1 [Example 2, 8-Hydroxy-5-{(1R)-1-hydroxy-2-[(trans-4-{[2-(2-phenylethoxy)ethyl]amino}cyclohexyl)amino]ethyl}quinolin-2(1H)-one]"
1.0,5.01,,,"O=c1ccc2c([C@@H](O)CNC[C@H]3CCCN(CCOCCc4ccccc4)C3)ccc(O)c2[nH]1 [Example 14, 8-Hydroxy-5-{(1R)-1-hydroxy-2-[({(3R)-1-[2-(2-phenylethoxy)ethyl]piperidin-3-yl}methyl)amino]ethyl}quinolin-2(1H)-one]"

# The remaining lines, values behind:
Structure (SMILES),Intrinsic Activity [1],EC50 [1] [nM],Intrinsic Activity [2],EC50 [2] [nM]
"Cc1cccc(Cl)c1CNC(=O)CCN1CCC(NC[C@H](O)c2ccc(O)c3[nH]c(=O)ccc23)CC1 [Example 31, N-(2-Chloro-6-methylbenzyl)-3-(4-{[(2R)-2-hydroxy-2-(8-hydroxy-2-oxo-1,2-dihydroquinolin-5-yl)ethyl]amino}piperidin-1-yl)propanamide]",,,0.8,5.01
"O=C(CCN1CCC(NC[C@H](O)c2ccc(O)c3[nH]c(=O)ccc23)CC1)NC12CC3CC(CC(C3)C1)C2 [Example 41, N-1-Adamantyl-3-(4-{[(2R)-2-hydroxy-2-(8-hydroxy-2-oxo-1,2-dihydroquinolin-5-yl)ethyl]amino}piperidin-1-yl)propanamide]",,,0.8,3.98
"O=c1[nH]c2c(O)ccc([C@@H](O)CNCC3CN(CCCOCCc4ccccc4)C3)c2s1 [Example 20, 4-Hydroxy-7-{(1R)-1-hydroxy-2-[({1-[3-(2-phenylethoxy)propyl]azetidin-3-yl}methyl)amino]ethyl}-1,3-benzothiazol-2(3H)-one hydrochloride]",,,1,0.316
"O=c1ccc2c([C@@H](O)CNCC3(O)CCN(CCOCCc4cccc5c4CCCC5)CC3)ccc(O)c2[nH]1 [Example 74, 8-Hydroxy-5-{(2R)-1-hydroxy-2-[(4-hydroxy-1-{2-[2-(5,6,7,8-tetrahydronaphthalen-1-yl)ethoxy]ethyl}piperidin-4-ylmethyl)amino]ethyl}-1H-quinolin-2-one]",,,0.9,0.794
"O=C(CCN1CCC(NC[C@H](O)c2ccc(O)c3[nH]c(=O)ccc23)CC1)NCc1cccc(Cl)c1Cl [Example 36, N-(2,3-Dichlorobenzyl)-3-(4-{[(2R)-2-hydroxy-2-(8-hydroxy-2-oxo-1,2-dihydroquinolin-5-yl)ethyl]amino}piperidin-1-yl)propanamide]",,,,3.16
